Assay results: patent US20170367338A1, “COMPOSITIONS AND METHODS FOR IMPROVING AGRONOMIC CHARACTERISTICS OF PLANTS” (MONSANTO TECHNOLOGY LLC, priority 2014, published 2017)
In brackets after ≈: the same amount, converted by molar mass. Read-outs that look alike come from different tables or passages of the source.

Tests used:
root knot nematode (RKN) = assay: RKN greenhouse soil assay on cucumber plants; format: in vivo; conditions: Radex emulsifiable concentrate formulation (6.25% active ingredient)
[1] = tested on: Heterodera glycines (SCN); assay: Seed treatment test of soybean cyst nematode on soybean; format: in vivo; conditions: Heterodera glycines, 672 h, test a, read-out: percent cyst reduction relative to control blank treatment
Procedure, shortened: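 Seeds (1 g cucumber for RKN, soybean for SCN) coated with compound in 500 ul acetone, air-dried, sown in sandy soil. Pots inoculated 3 days later with 1000 eggs per pot. Galling rated 14 days (RKN) or 28 days (SCN) after inoculation.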

Meloidogyne incognita = assay: M. incognita miniaturized greenhouse assay on cucumber seedlings; format: in vivo; conditions: 1 ppm; Table 1C test a
Procedure, shortened: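 Compound in acetone/Triton X100 diluted into water with 0.015% Triton X100, applied to sand vials holding 3-day cucumber sprouts; 500 M. incognita eggs inoculated two days after planting. Roots rated 10–12 days post-inoculation for % galling (0–3 scale, triplicate mean) plus visual root-stunting phytotoxicity.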

[2] = format: in vivo; conditions: three female mice, observed up to 14 days
Method: Acute oral toxicity testing was performed in mice in accordance with test method P203.UDP, as administered by Eurofins/Product Safety Laboratories (Dayton, New Jersey). CD-1/Swiss derived albino mice were obtained and group housed in suspended solid bottom caging. The mice were fed rodent chow and filtered tap water was supplied ad libitum. Following acclimation to the laboratory setting, a group of animals was fasted overnight by removing food from the cages. After the fasting period, three female mice were selected based on vitality and initial body weights. The individual compound doses were calculated from these body weights.
The test substance was prepared as a 1% (50 mg/kg) or 5% (500 mg/kg) weight to weight (w/w) mixture in a 0.5% w/w solution of carboxymethylcellulose (CMC) in distilled water. A tissue homogenizer was used to create a homogeneous mixture. A dose of 50 or 500 mg/kg was administered to three healthy mice per dose level by oral intubation using a ball-tipped gavage needle attached to a syringe. After administration, the animals were returned to their cages, and feed was replaced immediately after dosing.
Body weights were recorded prior to initiation and on Days 7 and 14 or a soon as possible after death.

C. elegans = assay: Three day C. elegans well assay; format: in vivo; conditions: Caenorhabditis elegans
Procedure, shortened: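 Contact assay in wells: DMSO dilutions (4 ul from 100× stocks at 10 mg/ml) with bacterial feed in M9 buffer plus ampicillin and nystatin. L1 (starvation-arrested) or L4 worms added, shaken at 20° C. Scored at 4, 24, 48 and 72 hours.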

[3] = tested on: Caenorhabditis elegans ced-3(n717) and ced-4(N1162) mutants; assay: Susceptibility of C. elegans apoptosis mutants on NGM agar plates; format: in vivo; conditions: 10μg/ml on NGM agar plates

SMILES | percent control (galling reduction), Radex 1 mg/kg (root knot nematode (RKN)) [%] | pest or weed control at 0.375 mg/g ([1]; 0.375 mg ai/gram seed) [%] | pest or weed control at 1.5 mg/g ([1]; 1.5 mg ai/gram seed) [%] | 1 ppm gall rating (Meloidogyne incognita) | acute oral toxicity: mortality and signs ([2]; 50 mg/kg oral) | acute oral toxicity: mortality and signs ([2]; 500 mg/kg oral) | EC50 (C. elegans; 24 h, L1 larvae, one day of exposure, read-out: EC50 L1 1D) [µg/mL] | EC50 (C. elegans; 24 h, L4 larvae, one day of exposure, read-out: EC50 L4 1D) [µg/mL] | EC50 (C. elegans; 48 h, L1 larvae, two days of exposure, read-out: EC50 L1 2D) [µg/mL] | EC50 (C. elegans; 48 h, L4 larvae, two days of exposure, read-out: EC50 L4 2D) [µg/mL] | EC50 (C. elegans; 72 h, L1 larvae, three days of exposure, read-out: EC50 L1 3D) [µg/mL] | EC50 (C. elegans; 72 h, L4 larvae, three days, effects on the second generation larvae, read-out: EC50 L4 3D (F1)) [µg/mL] | susceptibility of ced-3 and ced-4 mutants versus wild-type C. elegans (N2 Bristol), including time to mortality [3]
c1ccc(-c2noc(-c3cccs3)n2)cc1 [compound 1822] | 98 | 58 | 70 | 0 (0=0-5%) | all animals survived | all animals died within three days |  |  |  |  |  |  | 
Cc1cc(Cl)ccc1-c1noc(-c2ccco2)n1 [compound 5823] |  |  |  |  |  |  | 0.4 (≈ 1.53 µM) | 1.6 (≈ 6.14 µM) | 0.4 (≈ 1.53 µM) | 0.4 (≈ 1.53 µM) | 0.4 (≈ 1.53 µM) | 0.4 (≈ 1.53 µM) | No observable phenotypic difference in susceptibility
